The values that follow come from ChEMBL document CHEMBL5523739, “NN1213 - A Potent, Long-Acting, and Selective Analog of Human Amylin” (J Med Chem, 2024).

In series [1] the test system is Rattus norvegicus. As to the kind of experiment: Appetite suppressing activity in rat assessed as reduction in food intake at 30 nmol/kg, sc measured upto 24 hrs relative to control. On the set-up: scale not given: the % may be the effect or the level left. Type of series: functional.
Series [2] is described as follows: Stability against amyloid fibril formation at pH 7.5 assessed as lag time at 1 uM measured after 45 hrs by ThT assay. Type of series: physicochemical. Conditions: pH 7.5, 45 h.
Series [3] can be described thus: Solubility of compound at pH 3 incubated overnight by UPLC analysis. Conditions: buffer. Type of series: physicochemical.
The species named for series [4] is Homo sapiens. Put plainly: Selectivity ratio of IC50 for human CTR expressed in Baby hamster kidney cell membrane to IC50 for human AMY3R complex of CTR/RAMP3 expressed in Baby hamster kidney cell membrane. In kind it is cell-based.
Series [5] has as its target T1, Amylin receptor AMY3; CALCR/RAMP3 (Homo sapiens, UniProt O60896+P30988).
T1 sequence (P30988 whole entry): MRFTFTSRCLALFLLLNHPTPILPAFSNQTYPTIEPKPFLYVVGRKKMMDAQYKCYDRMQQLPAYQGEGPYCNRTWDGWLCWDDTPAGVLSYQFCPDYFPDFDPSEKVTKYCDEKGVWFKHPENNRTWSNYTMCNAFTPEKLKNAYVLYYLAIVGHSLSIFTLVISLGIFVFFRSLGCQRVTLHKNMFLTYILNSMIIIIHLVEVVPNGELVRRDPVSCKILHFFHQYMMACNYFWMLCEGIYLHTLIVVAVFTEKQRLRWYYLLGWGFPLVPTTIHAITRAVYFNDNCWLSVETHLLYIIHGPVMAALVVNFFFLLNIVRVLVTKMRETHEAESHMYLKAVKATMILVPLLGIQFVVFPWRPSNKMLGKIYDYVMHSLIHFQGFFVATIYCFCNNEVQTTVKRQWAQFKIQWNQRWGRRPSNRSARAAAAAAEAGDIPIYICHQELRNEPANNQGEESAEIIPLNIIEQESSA
T1 sequence (O60896 whole entry): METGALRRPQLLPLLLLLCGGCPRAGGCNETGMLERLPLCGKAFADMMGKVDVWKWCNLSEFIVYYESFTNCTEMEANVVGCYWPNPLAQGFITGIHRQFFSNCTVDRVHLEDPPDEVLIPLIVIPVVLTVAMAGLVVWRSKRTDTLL
As to the kind of experiment: Displacement of 125I-rat amylin from human AMY3R complex of CTR/RAMP3 expressed in Baby hamster kidney cell membrane incubated for 120 mins by SPA method. Type of series: cell membranes. For orientation: In a radioligand displacement assay an active substance lowers the binding of a labelled ligand.

Series [6] addresses T1, Amylin receptor AMY3; CALCR/RAMP3. Put plainly: Agonist activity at human AMY3R complex of CTR/RAMP3 expressed in Baby hamster kidney cells incubated for 3 hrs followed by medium replacement without compound measured after 30 mins by luciferase reporter assay. Type of series: functional, cell-based, Baby hamster kidney cell.
Series [7] is described as follows: Solubility of compound at pH 7.5 incubated overnight by UPLC analysis. Conditions: buffer. Type of series: physicochemical.
For series [8], the target named is T2, Calcitonin receptor (Homo sapiens, UniProt P30988).
T2 sequence (P30988 whole entry): T1 sequence (P30988 whole entry)
As to the kind of experiment: Agonist activity at human CTR expressed in Baby hamster kidney cells incubated for 3 hrs followed by medium replacement without compound measured after 30 mins by luciferase reporter assay. Type of series: functional, cell-based, Baby hamster kidney cell.

The species entered for series [9] is Homo sapiens. Put plainly: Selectivity ratio of EC50 for human CTR expressed in Baby hamster kidney cells to EC50 for human AMY3R complex of CTR/RAMP3 expressed in Baby hamster kidney cells. Type of series: cell-based.
The nature of series [10]: Stability against amyloid fibril formation at pH 7.5 assessed as compound recovery at 1 uM measured after 45 hrs by ThT assay. In kind it is physicochemical. Conditions: pH 7.5, 45 h.
Series [11] deals with T3, Amylin receptor AMY3; CALCR/RAMP3 (Rattus norvegicus, UniProt P32214+Q9JJ73).
T3 sequence (P32214 whole entry): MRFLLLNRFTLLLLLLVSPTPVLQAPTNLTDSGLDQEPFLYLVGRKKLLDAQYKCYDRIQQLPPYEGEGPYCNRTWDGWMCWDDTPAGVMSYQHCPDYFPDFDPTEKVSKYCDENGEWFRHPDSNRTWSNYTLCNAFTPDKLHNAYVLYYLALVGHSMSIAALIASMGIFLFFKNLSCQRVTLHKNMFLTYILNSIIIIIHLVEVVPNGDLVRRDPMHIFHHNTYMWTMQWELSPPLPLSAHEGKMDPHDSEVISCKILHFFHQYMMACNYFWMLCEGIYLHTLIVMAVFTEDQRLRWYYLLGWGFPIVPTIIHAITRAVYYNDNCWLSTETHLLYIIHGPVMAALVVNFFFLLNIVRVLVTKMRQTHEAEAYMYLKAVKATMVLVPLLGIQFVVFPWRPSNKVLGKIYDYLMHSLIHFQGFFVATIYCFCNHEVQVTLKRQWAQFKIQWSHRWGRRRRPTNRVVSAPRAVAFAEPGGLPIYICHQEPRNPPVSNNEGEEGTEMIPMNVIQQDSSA
T3 sequence (Q9JJ73 whole entry): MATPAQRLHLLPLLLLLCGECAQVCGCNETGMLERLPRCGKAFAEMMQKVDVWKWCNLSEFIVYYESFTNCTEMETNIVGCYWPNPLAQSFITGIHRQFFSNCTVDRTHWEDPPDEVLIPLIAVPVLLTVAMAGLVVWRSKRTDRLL
As to the kind of experiment: Agonist activity at rat AMY3R complex of CTR/RAMP3 expressed in Baby hamster kidney cells incubated for 3 hrs by cAMP assay. In kind it is functional, cell-based, Baby hamster kidney cell.

The species named for series [12] is Rattus norvegicus. Put plainly: Selectivity ratio of IC50 for rat CTR expressed in Baby hamster kidney cell membrane to IC50 for rat AMY3R complex of CTR/RAMP3 expressed in Baby hamster kidney cell membrane. Type of series: cell-based.
Series [13] concerns the target T2, Calcitonin receptor. As to the kind of experiment: Displacement of 125I-Calcitonin from human CTR expressed in Baby hamster kidney cell membrane incubated for 120 mins by SPA method. In kind it is cell membranes.
The nature of series [14]: Solubility of compound at pH 4 incubated overnight by UPLC analysis. In kind it is physicochemical. The following applies: buffer.
The species named for series [15] is Rattus norvegicus. Put plainly: Selectivity ratio of EC50 for rat CTR expressed in Baby hamster kidney cells to EC50 for rat AMY3R complex of CTR/RAMP3 expressed in Baby hamster kidney cells. In kind it is cell-based.
A short description of series [16]: Solubility of compound at pH 6 incubated overnight by UPLC analysis. Type of series: physicochemical. Conditions: buffer.
Series [17] in a line: Solubility of compound at pH 7 incubated overnight by UPLC analysis. Type of series: physicochemical. The following applies: buffer.
The nature of series [18]: Solubility of compound at pH 8 incubated overnight by UPLC analysis. In kind it is physicochemical. The following applies: buffer.
Series [19] concerns the target T4, Calcitonin receptor (Rattus norvegicus, UniProt P32214).
T4 sequence (P32214 whole entry): T3 sequence (P32214 whole entry)
As to the kind of experiment: Displacement of 125I-Calcitonin from rat CTR expressed in Baby hamster kidney cell membrane incubated for 120 mins by SPA method. Type of series: cell membranes.

A short description of series [20]: Solubility of compound at pH 5 incubated overnight by UPLC analysis. In kind it is physicochemical. Conditions: buffer.
The target of series [21] is T3, Amylin receptor AMY3; CALCR/RAMP3. Put plainly: Displacement of 125I-rat amylin from rat AMY3R complex of CTR/RAMP3 expressed in Baby hamster kidney cell membrane incubated for 120 mins by SPA method. In kind it is cell membranes.
Series [22] relates to Rattus norvegicus. Put plainly: Appetite suppressing activity in rat assessed as reduction in food intake at 30 nmol/kg, sc measured for 24 to 48 hrs relative to control. Conditions: time 24-48 hrs. Also on record: scale not given: the % may be the effect or the level left. In kind it is functional.
For series [23], the target named is T4, Calcitonin receptor. As to the kind of experiment: Agonist activity at rat CTR expressed in Baby hamster kidney cells incubated for 3 hrs by cAMP assay. In kind it is functional, cell-based, Baby hamster kidney cell. A general note: Changes in cAMP serve as a functional read-out for many G protein-coupled receptors.
Series [24] in a line: Solubility of compound at pH 6.5 incubated overnight by UPLC analysis. In kind it is physicochemical. Conditions: buffer.
The target of series [25] is Amylin receptor AMY1, CALCR/RAMP1 (Homo sapiens, UniProt P30988+O60894). As to the kind of experiment: Agonist activity at human AMY1R complex of CTR/RAMP1 transduced in human HeLa cells by cAMP assay. Type of series: functional, cell-based. The following applies: hela.
The target of series [26] is Amylin receptor AMY2; CALCR/RAMP2 (Homo sapiens, UniProt P30988+O60895). As to the kind of experiment: Agonist activity at human AMY2R complex of CTR/RAMP2 transduced in human HeLa cells by cAMP assay. In kind it is functional, cell-based. The following applies: hela.
For series [27], the target named is Adrenomedullin receptor, AM2; CALCRL/RAMP3 (Homo sapiens, UniProt Q16602+O60896). As to the kind of experiment: Agonist activity at human AM2R complex of CRLR/RAMP3 transduced in human HeLa cells by cAMP assay. In kind it is functional, cell-based.
Series [28] addresses Calcitonin-gene-related peptide receptor, CALCRL/RAMP1 (Homo sapiens, UniProt O60894+Q16602). As to the kind of experiment: Agonist activity at human CGRPR complex of CRLR/RAMP1 transduced in human HeLa cells by cAMP assay. Type of series: functional, cell-based. The following applies: hela.
The target in series [29] is T2, Calcitonin receptor. As to the kind of experiment: Agonist activity at human CTR transduced in human HeLa cells by cAMP assay. The following applies: hela. Type of series: functional, cell-based.
Series [30] has as its target T5, Amylin receptor AMY3; CALCR/RAMP3 (Homo sapiens, UniProt P30988+O60896).
T5 sequence (P30988 whole entry): T1 sequence (P30988 whole entry)
T5 sequence (O60896 whole entry): T1 sequence (O60896 whole entry)
As to the kind of experiment: Agonist activity at human AMY3R complex of CTR/RAMP3 transduced in human HeLa cells by cAMP assay. In kind it is functional, cell-based.

A value given as a limit tells only on which side of the number the result lay.

Amylin receptor AMY1, CALCR/RAMP1, sequence (O60894 whole entry, one chain of several): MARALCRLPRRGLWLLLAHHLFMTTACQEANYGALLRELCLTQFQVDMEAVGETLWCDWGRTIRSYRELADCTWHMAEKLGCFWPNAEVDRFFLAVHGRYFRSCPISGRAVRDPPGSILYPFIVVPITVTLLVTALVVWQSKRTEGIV
Amylin receptor AMY2; CALCR/RAMP2, sequence (O60895 whole entry, one chain of several): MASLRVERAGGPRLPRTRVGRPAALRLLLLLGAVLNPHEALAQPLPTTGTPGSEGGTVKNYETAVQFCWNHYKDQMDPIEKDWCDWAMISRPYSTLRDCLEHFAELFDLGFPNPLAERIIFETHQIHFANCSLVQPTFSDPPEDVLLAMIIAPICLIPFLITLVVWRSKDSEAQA
Calcitonin-gene-related peptide receptor, CALCRL/RAMP1, sequence (O60894 whole entry): as the sequence (O60894 whole entry, one chain of several) above
Calcitonin-gene-related peptide receptor, CALCRL/RAMP1, sequence (Q16602 whole entry): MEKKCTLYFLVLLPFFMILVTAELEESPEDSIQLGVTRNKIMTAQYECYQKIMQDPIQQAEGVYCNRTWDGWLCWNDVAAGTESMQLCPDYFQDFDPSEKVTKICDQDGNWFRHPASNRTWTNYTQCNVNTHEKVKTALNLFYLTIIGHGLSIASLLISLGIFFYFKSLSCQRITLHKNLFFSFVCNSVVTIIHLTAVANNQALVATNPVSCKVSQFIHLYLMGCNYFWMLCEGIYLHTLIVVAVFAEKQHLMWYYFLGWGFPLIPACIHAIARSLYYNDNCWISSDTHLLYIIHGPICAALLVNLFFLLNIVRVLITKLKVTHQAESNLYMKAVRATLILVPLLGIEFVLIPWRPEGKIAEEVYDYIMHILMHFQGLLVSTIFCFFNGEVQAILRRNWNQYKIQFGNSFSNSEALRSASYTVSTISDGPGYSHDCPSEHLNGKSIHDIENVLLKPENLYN
Adrenomedullin receptor, AM2; CALCRL/RAMP3, sequence (Q16602 whole entry, one chain of several): as the sequence (Q16602 whole entry) above

In general, solubility refers to the dissolved amount per volume that the medium holds. Usually IC50 stands for the midpoint of a concentration-inhibition curve. In general, EC50 refers to the concentration at which the effect is half-maximal. In the case of `CC[C@H](C)[C@H](NC(=O)[C@H](C)NC(=O)CNC(=O)[C@H](Cc1ccccc1)NC(=O)[C@H](CC(N)=O)NC(=O)[C@@H]1CCCN1C(=O)[C@H](CO)NC(=O)[C@H](CO)NC(=O)[C@H](Cc1c[nH]cn1)NC(=O)[C@H](CCCNC(=N)N)NC(=O)[C@H](CC(C)C)NC(=O)[C@H](Cc1ccccc1)NC(=O)[C@H](CC(N)=O)NC(=O)[C@H](C)NC(=O)[C@H](CC(C)C)NC(=O)[C@H](CCCNC(=N)N)NC(=O)[C@H](CCC(N)=O)NC(=O)[C@@H](NC(=O)[C@H](C)NC(=O)[C@@H]1CSSC[C@H](NC(=O)[C@@H](N)CCCCN)C(=O)N[C@@H](CC(N)=O)C(=O)N[C@@H]([C@@H](C)O)C(=O)N[C@@H](C)C(=O)N[C@@H]([C@@H](C)O)C(=O)N1)[C@@H](C)O)C(=O)N1CCC[C@H]1C(=O)N[C@@H](CO)C(=O)N[C@@H](CO)C(=O)N[C@H](C(=O)N[C@@H](CC(N)=O)C(=O)N[C@H](C(=O)NCC(=O)N[C@@H](CO)C(=O)N[C@@H](CC(N)=O)C(=O)N[C@H](C(=O)N[C@@H](Cc1ccc(O)cc1)C(N)=O)[C@@H](C)O)C(C)C)[C@@H](C)O`, the Activity in the series on Rattus norvegicus [1] turned out to be 22%; in the series with Rattus norvegicus [22] it was 1%. Moreover, in series [2], the Time came out at 34 h. Also, the solubility in series [3], in series [7], in series [14], in series [16], in [17] and in series [18] was no less than 200 µM each time. Also, the solubility in series [20] and in series [24] was no less than 200 µM throughout. For the same compound, the values for the Ratio IC50 in the series listed under Homo sapiens [4] and in the series filed under Rattus norvegicus [12] were 90 and 116, respectively. For the same compound, the IC50 in [5] was 1.14 nM; at Calcitonin receptor [13] it was 102 nM; on Calcitonin receptor [19], 350 nM; in series [21], 3.01 nM. Besides, the half-maximal effective concentration (EC50) in series [6] was 0.432 nM; on Calcitonin receptor [8], 10 nM; in series [11] it was 1.79 nM; on Calcitonin receptor [23] it was 142 nM. Moreover, the Ratio EC50 in the series listed under Homo sapiens [9] stood at 23; in the series filed under Rattus norvegicus [15], 79. Also, the Drug recovery in series [10] is on record as 0%.
The term pEC50 denotes the negative decadic logarithm of the EC50, by convention in mol/L. For CAGRILINTIDE, the negative logarithm of the EC50 (pEC50) is recorded as 10.73 in [25]; 10.37 in series [26]; 6.12 in series [27]; 6.25 in series [28]; 10.64 at Calcitonin receptor [29]; 10.33 in series [30].
